Source: US10183949B2, “Pyrimidinone derivative having autotaxin-inhibitory activity” (The University of Tokyo, priority 2014, dated 2019)

biological target: T1, Human autotaxin enzyme (Homo sapiens, UniProt Q13822); assay: Evaluation of autotaxin inhibitor, 18:0 Lyso PC / choline assay (Test Example 2); assay type: biochemical; settings: autotaxin inhibition, IC50 class; read-out: Inhibitor activity
T1 construct: purchased R&D System
Summary of the method: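 Human autotaxin in 100 mM Tris-HCl pH 7.5, 150 mM NaCl, 5 mM MgCl2, 0.05% Triton X-100 reacted with 18:0 Lyso PC (200 μM stock) and test compound 2 h at room temperature. Released choline quantified via choline oxidase/peroxidase resorufin fluorescence (ex 531/em 598 nm, 20 min); inhibition vs no-compound and no-enzyme controls, concentration-response curve.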

| IC50 | Structure (SMILES) |
| --- | --- |
| 10 to 100 nM | N#CC1(NC(=O)Cn2c3nc(cc2=O)-c2ccc(Cl)cc2NC(=O)/C=C/CCO3)CC1 [Compound I-0257] |

same assay, conditions: human autotaxin enzyme, 18:0 Lyso PC substrate, choline assay, room temperature 2 hours; read-out: Inhibitor activity (IC50)

| Structure (SMILES) | IC50 |
| --- | --- |
| COC(=O)Nc1cc(Cl)ccc1-c1cc(=O)n(CC(=O)NC2CCS(=O)(=O)C2)c(C)n1 (centres unmarked) [Compound I-0309] | 10 to 100 nM |
| CCCCCc1nc(-c2ccc(Cl)cc2)cc(=O)n1CC(=O)NC1(C#N)CCCCC1 [Compound I-0077] | 100 to 1000 nM |
| COC(=O)Nc1cc(Cl)ccc1-c1cc(=O)n(CC(=O)N(C)C(C)(C)C)c(C)n1 [Compound I-0269] | 10 to 100 nM |
| CN(CCC#N)C(=O)c1cccc(Cn2c(CCCC(F)(F)F)nc(-c3ccc(Cl)cc3)cc2=O)c1 [Compound I-0157] | 10 to 100 nM |
| Cc1nc(-c2ccc(Cl)cc2NC(=O)C(C)(C)C)cc(=O)n1CC(=O)NC1(c2nc(=O)o[nH]2)CC1 [Compound I-0386] | 10 to 100 nM |
| CCCCCc1nc(-c2ccc(Cl)cc2)cc(=O)n1CC(=O)NC(C(=O)O)c1ccc(O)cc1 (centres unmarked) [Compound I-0060] | 10 to 100 nM |
| NS(=O)(=O)CCNC(=O)c1cccc(Cn2c(CCCC(F)(F)F)nc(-c3ccc(Cl)cc3)cc2=O)c1 [Compound I-0186] | 100 to 1000 nM |
| CCCCCc1nc(-c2ccc(Cl)cc2)cc(=O)n1CC(=O)NC(Cc1ccccc1)C(=O)O (centres unmarked) [Compound I-0024] | < 10 nM |
| CCCCCc1nc(-c2ccc(Cl)cc2)cc(=O)n1CC(=O)NCCC(N)=O [Compound I-0031] | 100 to 1000 nM |
| COC(=O)c1ccc(Cn2c(CCCC(F)(F)F)nc(-c3ccc(Cl)cc3)cc2=O)s1 [Compound I-0312] | 100 to 1000 nM |
| CC(C)(C)OC(=O)Cn1c(CCCC(F)(F)F)nc(-c2ccc(Cl)cc2C=O)cc1=O [Compound I-0296] | 100 to 1000 nM |
| CCCCCc1nc(-c2ccc(Cl)cc2)cc(=O)n1CC(=O)N1CCC(CC(=O)O)CC1 [Compound I-0045] | < 10 nM |
| CCCCCc1nc(-c2ccc(Cl)cc2)cc(=O)n1CC(=O)N1[C@H](C)COC[C@@H]1C [Compound I-0095] | 10 to 100 nM |
| CCCCCc1nc(-c2ccc(Cl)cc2)cc(=O)n1CC(=O)N(CCC(=O)O)C1CCCC1 [Compound I-0062] | 10 to 100 nM |
| CCCCCc1nc(-c2ccc(Cl)cc2)cc(=O)n1CC(=O)N1CCOCC1c1ccccc1 (centres unmarked) [Compound I-0076] | 100 to 1000 nM |
| CCCCCc1nc(OC2CCC(C#N)CC2)cc(=O)n1CC(=O)NC1(C#N)CC1 (centres unmarked) [Compound I-0208] | ≥ 1000 nM |
| O=C(O)c1cccc(Cn2c(CCCC(F)(F)F)nc(-c3ccc(Cl)cc3CO)cc2=O)c1 [Compound I-0322] | 10 to 100 nM |
| O=C(NCc1ccnc(O)c1)c1cccc(Cn2c(CCCC(F)(F)F)nc(-c3ccc(Cl)cc3)cc2=O)c1 [Compound I-0192] | 10 to 100 nM |
| CCCCCc1nc(-c2ccc(Cl)cc2)cc(=O)n1CC(=O)NC(CO)C(=O)O (centres unmarked) [Compound I-0052] | < 10 nM |
| CC(C)(O)CNC(=O)Cn1c(COCC(F)(F)F)nc(-c2ccc(Cl)cc2)cc1=O [Compound I-0215] | 10 to 100 nM |
| CC1(C)CN(c2cc(=O)n(CC(=O)NC3(C#N)CC3)c(CCCC(F)(F)F)n2)C1 [Compound I-0236] | ≥ 1000 nM |
| O=C(O)c1cccc(Cn2c(CCCC(F)(F)F)nc(-c3ccc(Cl)cc3)cc2=O)c1 [Compound I-0112] | 10 to 100 nM |
| CNC(=O)CN1CCC(NC(=O)Cn2c(CCCC(F)(F)F)nc(-c3ccc(Cl)cc3)cc2=O)CC1 [Compound I-0129] | 100 to 1000 nM |
| CCOCCc1nc(-c2ccc(Cl)cc2)cc(=O)n1CC(=O)NCC(C)(C)O [Compound I-0222] | 100 to 1000 nM |

| Structure (SMILES) | IC50 |
| --- | --- |
| CCCCCc1nc(-c2ccc(Cl)cc2)cc(=O)n1CC(=O)NC(CC)C(=O)O (centres unmarked) [Compound I-0051] | < 10 nM |
| CCCCCc1nc(-c2ccc(Cl)cc2)cc(=O)n1CC(=O)NC(C)(C)C(=O)O [Compound I-0056] | < 10 nM |
| Cc1nc(-c2ccc(Cl)cc2NC(=O)C(C)(C)C)cc(=O)n1CC(=O)NCC1(CO)COC1 [Compound I-0317] | 10 to 100 nM |
| COC(=O)Nc1cc(Cl)ccc1-c1cc(=O)n(CC(=O)NC(C)(C)C)c(C)n1 [Compound I-0265] | 10 to 100 nM |
| CCCCCc1nc(-c2ccc(Cl)cc2)cc(=O)n1CC(=O)NCC1(CO)COC1 [Compound I-0035] | 10 to 100 nM |
| NC(=O)C1CCN(C(=O)Cn2c(CCCC(F)(F)F)nc(-c3ccc(Cl)cc3)cc2=O)CC1 [Compound I-0118] | 10 to 100 nM |
| CCCCCc1nc(-c2ccc(Cl)cc2)cc(=O)n1CC(=O)NCCc1ccccc1 [Compound I-0103] | 10 to 100 nM |
| O=C(O)c1ccc(Cn2c(CCCC(F)(F)F)nc(-c3ccc(Cl)cc3)cc2=O)o1 [Compound I-0280] | 10 to 100 nM |
| CCCCCc1nc(-c2ccc(Cl)cc2NC(C)=O)cc(=O)n1CC(=O)NC1(C#N)CC1 [Compound I-0205] | 10 to 100 nM |
| CN(C)C(=O)c1cccc(Cn2c(CCCC(F)(F)F)nc(-c3ccc(Cl)cc3)cc2=O)c1 [Compound I-0181] | 10 to 100 nM |
| CCCOCc1nc(-c2ccc(Cl)cc2)cc(=O)n1CC(=O)NC1(CO)CC1 [Compound I-0204] | 100 to 1000 nM |
| CCCCCc1nc(-c2ccc(Cl)cc2)cc(=O)n1CC(=O)N[C@@H]1CN2CCC1CC2 [Compound I-0078] | ≥ 1000 nM |
| CCCCCOc1nc(-c2ccc(Cl)cc2)cc(=O)n1CC(=O)NC(Cc1ccccc1)C(=O)O (centres unmarked) [Compound I-0152] | 10 to 100 nM |
| CCCCCNc1nc(-c2ccc(C(F)(F)F)cc2)cc(=O)n1Cc1cccc(C(=O)NC(Cc2ccccc2)C(=O)O)c1 (centres unmarked) [Compound I-0014] | 100 to 1000 nM |
| CCCCCc1nc(-c2ccc(Cl)cc2)cc(=O)n1CC(=O)NC1(C(=O)O)CC1 [Compound I-0069] | 10 to 100 nM |
| Cc1nc(-c2ccc(C#N)cc2NC(=O)C(C)(C)C)cc(=O)n1Cc1cccc(C(=O)O)c1 [Compound I-0282] | < 10 nM |
| NS(=O)(=O)CCNC(=O)Cn1c(CCCC(F)(F)F)nc(-c2ccc(Cl)cc2)cc1=O [Compound I-0133] | 10 to 100 nM |
| CCCCCc1nc(-c2ccc(Cl)cc2)cc(=O)n1CC(=O)NCCCCC(=O)O [Compound I-0064] | < 10 nM |
| O=C(Cn1c(CCCC(F)(F)F)nc(-c2ccc(Cl)cc2)cc1=O)NCCN(CCO)CCO [Compound I-0146] | 100 to 1000 nM |
| CCCCCc1nc(-c2ccc(Cl)cc2)cc(=O)n1CC(=O)N1CCN(CC(=O)O)CC1 [Compound I-0048] | < 10 nM |
| O=C(Cn1c(CCCC(F)(F)F)nc(-c2ccc(Cl)cc2)cc1=O)NCCOCCOCCO [Compound I-0140] | 100 to 1000 nM |
| CCCCCc1nc(-c2ccc(Cl)cc2)cc(=O)n1CC(=O)NC(C)C [Compound I-0026] | 10 to 100 nM |
| Cc1nc(C2=CCC(C(F)(F)F)CC2)cc(=O)n1Cc1cccc(C(=O)O)c1 (centres unmarked) [Compound I-0262] | 100 to 1000 nM |

The next lines start with the values.

| IC50 | Structure (SMILES) |
| --- | --- |
| 10 to 100 nM | O=C(Cn1c(CCCC(F)(F)F)nc(-c2ccc(Cl)cc2CO)cc1=O)NCC1(CO)CC1 [Compound I-0328] |
| 100 to 1000 nM | COC(=O)Nc1cc(Cl)ccc1-c1cc(=O)n(CC(=O)N2CC(C)(O)C2)c(C)n1 [Compound I-0411] |
| 10 to 100 nM | O=C(Cn1c(CCCC(F)(F)F)nc(-c2ccc(C(F)(F)F)cc2)cc1=O)N1CCS(=O)(=O)CC1 [Compound I-0349] |
| 10 to 100 nM | N#CC1CCN(C(=O)Cn2c(CCCC(F)(F)F)nc(-c3ccc(C(F)(F)F)cc3)cc2=O)C1 (centres unmarked) [Compound I-0327] |
| 100 to 1000 nM | CCNC(=O)N1CCC(NC(=O)Cn2cnc(-c3ccc(Cl)cc3NC(=O)C(C)(C)C)cc2=O)CC1 [Compound I-0487] |
| 10 to 100 nM | O=C(Cn1c(CCCC(F)(F)F)nc(-c2ccc(C(F)(F)F)cc2)cc1=O)NC1(c2nc(=O)o[nH]2)CC1 [Compound I-0387] |
| 10 to 100 nM | O=C(Cn1c(CCCC(F)(F)F)nc(-c2ccc(C(F)(F)F)cc2)cc1=O)NC1(c2ccccn2)CC1 [Compound I-0348] |
| < 10 nM | COC(=O)Nc1cc(C#N)ccc1-c1cc(=O)n(Cc2cccc(-c3nc(=O)o[nH]3)c2)c(C)n1 [Compound I-0378] |
| 10 to 100 nM | O=C(Cn1c(CCCC(F)(F)F)nc(-c2ccc(C(F)(F)F)cc2)cc1=O)NCC1CCC(=O)N1 (centres unmarked) [Compound I-0335] |
| 10 to 100 nM | COC(=O)Nc1cc(C#N)ccc1-c1cc(=O)n(CC(=O)NC(C)C)c(C)n1 [Compound I-0389] |
| 10 to 100 nM | O=C1CC(CNC(=O)Cn2c(CCCC(F)(F)F)nc(-c3ccc(C(F)(F)F)cc3)cc2=O)CN1 (centres unmarked) [Compound I-0336] |
| 10 to 100 nM | Cc1nc(-c2ccc(Cl)cc2NC(=O)C2CC2)cc(=O)n1CC(=O)NC(C)(C)C(F)(F)F [Compound I-0462] |
| 100 to 1000 nM | CC(C)(C)NC(=O)c1cccc(Cn2cnc(-c3ccc(Cl)cc3NC(=O)C(C)(C)C)cc2=O)c1 [Compound I-0477] |
| ≥ 1000 nM | Cc1nc(-c2ccc(Cl)cc2NC(=O)C(C)(C)C)cc(=O)n1CCO [Compound I-0371] |
| 100 to 1000 nM | CNC(=O)CN1CCC(NC(=O)Cn2c(CCCC(F)(F)F)nc(-c3ccc(C(F)(F)F)cc3)cc2=O)CC1 [Compound I-0365] |
| 10 to 100 nM | COC(=O)Nc1cc(Cl)ccc1-c1cc(=O)n(CC(=O)NC2COC2)c(C)n1 [Compound I-0393] |
| 10 to 100 nM | Cc1nc(-c2ccc(Cl)cc2NC(=O)C2CC2)cc(=O)n1CC(=O)NC(C)(C)C [Compound I-0405] |
| 10 to 100 nM | COC(=O)Nc1cc(Cl)ccc1-c1cc(=O)n(CC(=O)NC2(C)CC2)c(C)n1 [Compound I-0392] |
| 10 to 100 nM | Cc1nc(-c2ccc(Cl)cc2NC(=O)C2CC2)cc(=O)n1CC(=O)NCc1c[nH]nn1 [Compound I-0431] |
| 10 to 100 nM | Cc1nc(-c2ccc(Cl)cc2NC(=O)C2CC2)cc(=O)n1CC(=O)NC(C)(C)CO [Compound I-0422] |
| 100 to 1000 nM | CC(C)(C)C(=O)Nc1cc(Cl)ccc1-c1cc(=O)n(CC(=O)NCC2(CO)COC2)c(CCC(F)(F)F)n1 [Compound I-0360] |
| 10 to 100 nM | O=C(Cn1c(CCCC(F)(F)F)nc(-c2ccc(C(F)(F)F)cc2)cc1=O)NCC1(CO)COC1 [Compound I-0337] |
| 100 to 1000 nM | CCS(=O)(=O)N1CCN(C(=O)Cn2c(CCCC(F)(F)F)nc(-c3ccc(C(F)(F)F)cc3)cc2=O)CC1 [Compound I-0366] |
